These compounds were tested on Th17 cells (assay: Th17 assay (IL-17 in supernatants of differentiating human naive CD4+ T cells, ELISA)). Conditions: 168 h, Th17 differentiation for seven days with test compound, IL-17 levels in supernatants by ELISA.
Format: cell-based
Method: Th17 Assay (Another Suitable Assay)
The following modifications were made to the manufacturer's protocol: 1) Incubation with Biotin-Antibody Cocktail and Anti-Biotin MicroBeads was prolonged to 30 minutes, and 2) Cells were washed with 40 mL of Miltenyi buffer. Differentiation of Th17 cells in anti-CD3 (BD Pharmingen, 5 μg/ml) coated 96-well plates (400,000 cells/well, 160 μl RPMI1640+10% Fetal Bovine Serum) containing 5 μg/ml anti-CD28 (BD Pharmingen), 10 ng/ml IL-2 (R&D Systems), 2.5 ng/ml TGFβ-1 (R&D Systems), 20 ng/ml IL-1β (R&D Systems), 20 ng/ml IL-6 (R&D Systems), 30 ng/ml IL-23 (R&D Systems), 2.5 μg/ml anti-IL-4 (R&D Systems) and 1 μg/ml anti-IFNγ (R&D Systems) and with test compound during the entire differentiation (or vehicle, 0.1% DMSO for control). Test compounds were tested in triplicates, diluted 1000-fold in medium (final DMSO concentration is 0.1%). Incubated for seven days at 37° C., 5% CO2, 95% humidity, and 2-fluoro-4′-[[4-(4-pyridinylmethyl)-1-piperazinyl]methyl]-α,α-bis(trifluoromethyl)-[1,1′-biphenyl]-4-methanol (SR2211 Calbiochem, Cat. No. 557353) was used as positive control. As negative control, cells were differentiated into Th0 using 5 μg/ml anti-CD28 (BD Pharmingen), 10 ng/ml IL-2 (R&D Systems), 2 μg/ml anti-IL4 (R&D Systems) and 2 μg/ml anti-IFNγ (R&D Systems) are negative control. IL-17 levels in supernatants were measured with ELISA (R&D Systems).

IC50 [nM]	SMILES
161	NC(=O)CN1CCC(CNc2ncnc(N3CCOC[C@@H]3c3ccc(C(F)(F)F)cc3)c2F)CC1 [Example H6-5, (S)-2-(4-(((5-fluoro-6-(3-(4-(trifluoromethyl)phenyl)morpholino)pyrimidin-4-yl)amino)methyl)piperidin-1-yl)acetamide]

What follows are compounds tested against T1, RORγ (Homo sapiens, UniProt P51449) (assay: RORγ Reporter Assay (Gal4)). Conditions: HEK293 co-transfected with RORγ LBD-Gal4 and luciferase reporter, 24 h incubation, absolute IC50; read-out: IC50.
T1 construct: Gal4 (galactose-responsive transcription factor); expressed in transfected cells; host or cells: HEK293
T1 sequence (P51449 269-508 limits assumed): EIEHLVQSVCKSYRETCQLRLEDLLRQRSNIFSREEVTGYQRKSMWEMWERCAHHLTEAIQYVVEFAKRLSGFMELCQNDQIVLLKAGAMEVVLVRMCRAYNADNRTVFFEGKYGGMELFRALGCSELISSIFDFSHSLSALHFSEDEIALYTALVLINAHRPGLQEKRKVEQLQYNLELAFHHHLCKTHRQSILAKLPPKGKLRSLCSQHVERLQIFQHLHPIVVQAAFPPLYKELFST
Format: cell-based
Method: RORγ Reporter Assay (Gal4)
The HEK293 cell line is co-transfected transiently with two plasmids, one with the RORγ ligand-binding domain fused to galactose-responsive transcription factor (Gal4), and the other with the luciferase reporter gene and Gal binding sites (UAS). This construction allows to determine the RORγ activity in a cellular system through the measurement of luminescence.
A suspension of RORγ reporter cells was dispensed into plates and cultured 2 h at 37° C. and 5% CO2. Media formulation consisted in DMEM/F-12 medium (Gibco) supplemented with 10% heat inactivated FBS (Sigma-Aldrich), non-essential aminoacids (Sigma-Aldrich), 2 mM Glutamax (Gibco) and 100 U/mF penicillin (Sigma-Aldrich). Dose-response curves with compounds were prepared in 100% DMSO and further diluted […] in culture medium. Compound solutions were added to the plate containing cells (final DMSO concentration of 0.1%) and incubated for 24 h at 37° C. and 5% CO2. Luciferase detection reagent was added to each well, and relative light units […] were quantified from each assay well using a plate reading luminometer.
Values of average RFU±S.D. were computed for all treatment sets, followed by the calculations of percent-reduction of RORγ activity in response to respective test compound. The following formula was used: activity=100*[1−[x test compound/average vehicle]where the theoretical minimum reduction (0% reduction).

SMILES	IC50 [nM]
NC(=O)CN1CCC(CNc2ncnc(N3CCC3c3ccc(C(F)(F)F)cc3)c2F)CC1 (stereo not drawn) [Example H6-28, 2-(4-(((5-fluoro-6-(2-(4-(trifluoromethyl)phenyl)azetidin-1-yl)pyrimidin-4-yl)amino)methyl)piperidin-1-yl)acetamide]	300
NC(=O)CN1CC[C@H](CNc2ncnc(N3CCOC[C@@H]3c3ccc(C(F)(F)F)cn3)c2F)[C@@H](F)C1 (single isomer, unassigned) [Example H6-13-1, 2-((3R*,4R*)-3-fluoro-4-(((5-fluoro-6-((S)-3-(5-(trifluoromethyl)pyridin-2-yl)morpholino)pyrimidin-4-yl)amino)methyl)piperidin-1-yl)acetamide]	160
NC(=O)CN1CC[C@H](CNc2ncnc(N3CC(F)(F)C[C@@H]3c3ccc(C(F)(F)F)cn3)c2F)[C@@H](F)C1 (single isomer, unassigned) [Example H6-18-1, 2-((3R*,4R*)-4-(((6-((R)-4,4-difluoro-2-(5-(trifluoromethyl)pyridin-2-yl)pyrrolidin-1-yl)-5-fluoropyrimidin-4-yl)amino)methyl)-3-fluoropiperidin-1-yl)acetamide]	140
NC(=O)CN1CCC(O)(CNc2ncnc(N3CC(F)(F)C[C@@H]3c3ccc(C(F)(F)F)cc3)c2F)CC1 [Example H6-14, (R)-2-(4-(((6-(4,4-difluoro-2-(4-(trifluoromethyl)phenyl)pyrrolidin-1-yl)-5-fluoropyrimidin-4-yl)amino)methyl)-4-hydroxypiperidin-1-yl)acetamide]	230
CC(C(N)=O)N1CCC(CNc2ncnc(N3CCOC[C@@H]3c3ccc(C(F)(F)F)cn3)c2F)CC1 (stereo partly drawn) [Example H6-1]	910
NC(=O)CN1CCC(CNc2ncnc(N3CCOC[C@@H]3c3ccc(C(F)(F)F)cn3)c2F)C(F)(F)C1 (single isomer, unassigned) [Example H6-11-1, 2-((R*)-3,3-difluoro-4-(((5-fluoro-6-((S)-3-(5-(trifluoromethyl)pyridin-2-yl)morpholino)pyrimidin-4-yl)amino)methyl)piperidin-1-yl)acetamide]	360
NC(=O)CN1CCC(CNc2ncnc(N3CCOC[C@@H]3c3ccc(C(F)(F)F)cc3)c2F)C(F)(F)C1 (single isomer, unassigned) [Example H6-9-1, 2-((R*)-3,3-difluoro-4-(((5-fluoro-6-((S)-3-(4-(trifluoromethyl)phenyl)morpholino)pyrimidin-4-yl)amino)methyl)piperidin-1-yl)acetamide]	100
NC(=O)CN1CCC(CNc2ncnc(N3CCOC[C@@H]3c3ccc(C(F)(F)F)cc3)c2F)CC1 [Example H6-5, (S)-2-(4-(((5-fluoro-6-(3-(4-(trifluoromethyl)phenyl)morpholino)pyrimidin-4-yl)amino)methyl)piperidin-1-yl)acetamide]	70
NC(=O)CN1CC[C@H](CNc2ncnc(N3CC(F)(F)C[C@@H]3c3ccc(C(F)(F)F)cn3)c2F)[C@@H](O)C1 (mixture of isomers) [Example H6-20, 2-((3RS,4RS)-4-(((6-((R)-4,4-difluoro-2-(5-(trifluoromethyl)pyridin-2-yl)pyrrolidin-1-yl)-5-fluoropyrimidin-4-yl)amino)methyl)-3-hydroxypiperidin-1-yl)acetamide]	488
NC(=O)CN1CCC(CNc2ncnc(N3CCOC[C@@H]3c3ccc(OC(F)(F)F)cc3)c2F)CC1 [Example H6-23, (S)-2-(4-(((5-fluoro-6-(3-(4-(trifluoromethoxy)phenyl)morpholino)pyrimidin-4-yl)amino)methyl)piperidin-1-yl)acetamide]	190

More lines, now with the values ahead:

IC50 [nM]	SMILES
10	NC(=O)CN1CC[C@H](CNc2ncnc(N3CC(F)(F)C[C@@H]3c3ccc(C(F)(F)F)cc3)c2F)[C@@H](F)C1 (single isomer, unassigned) [Example H6-16-2, 2-((3R*,4R*)-4-(((6-((R)-4,4-difluoro-2-(4-(trifluoromethyl)phenyl)pyrrolidin-1-yl)-5-fluoropyrimidin-4-yl)amino)methyl)-3-fluoropiperidin-1-yl)acetamide]
56	NC(=O)CN1CCC(F)(CNc2ncnc(N3CCOC[C@@H]3c3ccc(C(F)(F)F)cc3)c2F)CC1 [Example H6-4, (S)-2-(4-fluoro-4-(((5-fluoro-6-(3-(4-(trifluoromethyl)phenyl)morpholino)pyrimidin-4-yl)amino)methyl)piperidin-1-yl)acetamide]
44	C[C@@H]1COC[C@H](c2ccc(C(F)(F)F)cc2)N1c1ncnc(NC[C@@H]2CCN(CC(N)=O)C[C@H]2O)c1F (single isomer, unassigned) [Example H6-22-1]
31	NC(=O)CN1CC[C@H](CNc2ncnc(N3CC(F)(F)C[C@@H]3c3ccc(C(F)(F)F)cc3)c2F)[C@@H](O)C1 (single isomer, unassigned) [Example H6-17-2, 2-((3R*,4R*)-4-(((6-((R)-4,4-difluoro-2-(4-(trifluoromethyl)phenyl)pyrrolidin-1-yl)-5-fluoropyrimidin-4-yl)amino)methyl)-3-hydroxypiperidin-1-yl)acetamide]
39	NC(=O)CN1CC[C@H](CNc2ncnc(N3CCOC[C@@H]3c3ccc(C(F)(F)F)cc3)c2F)[C@@H](F)C1 (single isomer, unassigned) [Example H6-10-1, 2-((3R*,4R*)-3-fluoro-4-(((5-fluoro-6-((S)-3-(4-(trifluoromethyl)phenyl)morpholino)pyrimidin-4-yl)amino)methyl)piperidin-1-yl)acetamide]
25	NC(=O)CN1CCC(CNc2ncnc(N3CC(F)(F)C[C@@H]3c3ccc(C(F)(F)F)cc3)c2F)C(F)(F)C1 (single isomer, unassigned) [Example H6-15-2, 2-((R*)-4-(((6-((R)-4,4-difluoro-2-(4-(trifluoromethyl)phenyl)pyrrolidin-1-yl)-5-fluoropyrimidin-4-yl)amino)methyl)-3,3-difluoropiperidin-1-yl)acetamide]

Same assay, conditions: comparison compounds from WO2016020295, Tables 5 and 6; read-out: Gal4 assay IC50

IC50 [nM]	SMILES
< 1000	NC(=O)CC1CCC(CNc2ncnc(N3CCOC[C@@H]3c3ccc(C(F)(F)F)cc3)c2F)CC1 (stereo partly drawn) [Example 206, reference compound]

Source: patent publication US11447479B2, “Compounds active towards nuclear receptors” (NUEVOLUTION A/S, priority 2019, dated 2022)
